Patent US10913738B2 (BRISTOL-MYERS SQUIBB COMPANY, priority 2017, dated 2021)
pIC50: −log10 of the molar value. Read-outs that look alike come from different tables or passages of the source.

How the values were obtained:
[1] = biological target: T1, His-GST-TVMV-hRIPK1(1-324) (Homo sapiens, UniProt Q13546); assay: RIPK1 HTRF Binding Assay
T1 construct: The coding region of human RIPK1(1-324) flanked by NdeI site at 5′ end; made in house; host or cells: Spodoptera frugiperda (Sf9) insect cells, baculovirus
T1 sequence (Q13546 1-324): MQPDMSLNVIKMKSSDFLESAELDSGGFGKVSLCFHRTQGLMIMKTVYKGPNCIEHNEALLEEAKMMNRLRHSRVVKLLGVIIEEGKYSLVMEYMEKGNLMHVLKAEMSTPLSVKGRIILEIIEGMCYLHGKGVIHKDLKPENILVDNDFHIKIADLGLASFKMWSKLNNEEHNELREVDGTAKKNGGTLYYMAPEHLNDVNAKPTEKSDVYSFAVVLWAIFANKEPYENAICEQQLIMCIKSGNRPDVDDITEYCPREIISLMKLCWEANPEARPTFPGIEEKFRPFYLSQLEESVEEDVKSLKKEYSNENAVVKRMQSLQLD

[2] = tested on: MLKL phosphorylation in HT29-L23 human colorectal adenocarcinoma cells; assay: MLKL Phosphorylation High-Content Assay; type: cell-based; conditions: Homo sapiens
Summary of the method: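 IC50 and Ymax obtained by 4-parameter logistic fitting of MLKL phosphorylation, measured as mean circ-ring average intensity ratio from high-content images. Staining used an anti-phospho-S358 MLKL antibody overnight at 4° C., following six-hour cell incubation at 37° C.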

[3] = x marks IC50 class <20 nM, read-out: RIPK1 HTRF binding <20 nM
[4] = x marks IC50 class 20-200 nM, read-out: pMLKL cell activity 20-200 nM
[5] = x marks IC50 class 20-200 nM, read-out: RIPK1 HTRF binding 20-200 nM
[6] = x marks IC50 class >200 nM, read-out: pMLKL cell activity >200 nM
[7] = x marks IC50 class <20 nM, read-out: pMLKL cell activity <20 nM

Compound	pIC50 [1, 3]	pIC50 [2, 4]	pIC50 [1, 5]	pIC50 [2, 6]	pIC50 [2, 7]
COc1nc(C)c(-c2ccn3nc(N)nc3c2)cc1C(=O)NCc1ccccc1COC(C)C [Example 330, 5-(2-amino-[1,2,4]triazolo[1,5-a]pyridin-7-yl)-N-(2-(isopropoxymethyl)benzyl)-2-methoxy-6-methylnicotinamide]	> 7.70	6.70 to 7.70			
[2H]C([2H])(NC(=O)c1cc(-c2ccn3nc(N)nc3c2)c(C)nc1OC)c1cc(C(F)(F)F)ccc1F [Example 331, 5-(2-amino-[1,2,4]triazolo[1,5-a]pyridin-7-yl)-N-((2-fluoro-5-(trifluoromethyl)phenyl)methyl-d2)-2-methoxy-6-methylnicotinamide]	> 7.70	6.70 to 7.70			
COc1nc(C)c(-c2ccn3nc(N)nc3c2)cc1C(=O)NCc1ccccc1OCC(F)(F)F [Example 332, 5-(2-amino-[1,2,4]triazolo[1,5-a]pyridin-7-yl)-2-methoxy-6-methyl-N-(2-(2,2,2-trifluoroethoxy)benzyl)nicotinamide]	> 7.70	6.70 to 7.70			
COc1nc(C)c(-c2ccn3nc(N)nc3c2)cc1C(=O)NCc1cc(F)cc(F)c1OCC(C)C [Example 333, 5-(2-amino-[1,2,4]triazolo[1,5-a]pyridin-7-yl)-N-(3,5-difluoro-2-isobutoxybenzyl)-2-methoxy-6-methylnicotinamide]	> 7.70	6.70 to 7.70			
COc1nc(C)c(-c2ccn3nc(N)nc3c2)cc1C(=O)NCc1cccc(OCC(F)(F)F)c1 [Example 334, 5-(2-amino-[1,2,4]triazolo[1,5-a]pyridin-7-yl)-2-methoxy-6-methyl-N-(3-(2,2,2-trifluoroethoxy)benzyl)nicotinamide]	> 7.70	6.70 to 7.70			
[2H]C([2H])(NC(=O)c1cc(-c2ccn3nc(N)nc3c2)c(C)nc1OC)c1cccc(C(F)(F)F)c1 [Example 335, 5-(2-amino-[1,2,4]triazolo[1,5-a]pyridin-7-yl)-2-methoxy-6-methyl-N-((3-(trifluoromethyl)phenyl)methyl-d2)nicotinamide]		6.70 to 7.70	6.70 to 7.70		
COc1nc(C)c(-c2ccn3nc(N)nc3c2)cc1C(=O)NCc1cc(C(F)(F)F)cc(Cl)c1F [Example 336, 5-(2-amino-[1,2,4]triazolo[1,5-a]pyridin-7-yl)-N-(3-chloro-2-fluoro-5-(trifluoromethyl)benzyl)-2-methoxy-6-methylnicotinamide]		6.70 to 7.70	6.70 to 7.70		
COc1ccc(F)c(CNC(=O)c2cc(-c3ccn4nc(N)nc4c3)c(C)nc2OC)c1 [Example 337, 5-(2-amino-[1,2,4]triazolo[1,5-a]pyridin-7-yl)-N-(2-fluoro-5-methoxybenzyl)-2-methoxy-6-methylnicotinamide]			6.70 to 7.70	< 6.70	
COc1ncc(-c2ccn3nc(N)nc3c2)cc1C(=O)NCc1c(OCC2CC2)ccc(F)c1F [Example 338, 5-(2-amino-[1,2,4]triazolo[1,5-a]pyridin-7-yl)-N-(6-(cyclopropylmethoxy)-2,3-difluorobenzyl)-2-methoxynicotinamide]	> 7.70				> 7.70
COc1ncc(-c2ccn3nc(N)nc3c2)cc1C(=O)NCc1cc(F)ccc1OCC(F)(F)F [Example 339, 5-(2-amino-[1,2,4]triazolo[1,5-a]pyridin-7-yl)-N-(5-fluoro-2-(2,2,2-trifluoroethoxy)benzyl)-2-methoxynicotinamide]	> 7.70				> 7.70
COc1ncc(-c2ccn3nc(N)nc3c2)cc1C(=O)NCc1ccccc1OCC(C)C [Example 340, 5-(2-amino-[1,2,4]triazolo[1,5-a]pyridin-7-yl)-N-(2-isobutoxybenzyl)-2-methoxynicotinamide]	> 7.70	6.70 to 7.70			
COc1ncc(-c2ccn3nc(N)nc3c2)cc1C(=O)NCc1cc(F)cc(F)c1OC1CCCOC1 (centres unmarked) [Example 342, 5-(2-amino-[1,2,4]triazolo[1,5-a]pyridin-7-yl)-N-(3,5-difluoro-2-((tetrahydro-2H-pyran-3-yl)oxy)benzyl)-2-methoxynicotinamide]	> 7.70	6.70 to 7.70			
COc1ncc(-c2ccn3nc(N)nc3c2)cc1C(=O)NCc1ccccc1OCC(F)(F)F [Example 343, 5-(2-amino-[1,2,4]triazolo[1,5-a]pyridin-7-yl)-2-methoxy-N-(2-(2,2,2-trifluoroethoxy)benzyl)nicotinamide]	> 7.70	6.70 to 7.70			
COc1ncc(-c2ccn3nc(N)nc3c2)cc1C(=O)NCc1cc(F)cc(F)c1OC1CC1 [Example 344, 5-(2-amino-[1,2,4]triazolo[1,5-a]pyridin-7-yl)-N-(2-cyclopropoxy-3,5-difluorobenzyl)-2-methoxynicotinamide]	> 7.70	6.70 to 7.70			
[2H]C([2H])([2H])[C@@H](NC(=O)c1cc(-c2ccn3nc(N)nc3c2)cnc1OC)c1cccc(OC(F)(F)F)c1 [Example 346, (R)-5-(2-amino-[1,2,4]triazolo[1,5-a]pyridin-7-yl)-2-methoxy-N-(1-(3-(trifluoromethoxy)phenyl)ethyl-2,2,2-d3)nicotinamide]	> 7.70	6.70 to 7.70			
[2H]C([2H])([2H])[C@H](NC(=O)c1cc(-c2ccn3nc(N)nc3c2)cnc1OC)c1cc(C(F)(F)F)ccc1F [Example 347, (S)-5-(2-amino-[1,2,4]triazolo[1,5-a]pyridin-7-yl)-N-(1-(2-fluoro-5-(trifluoromethyl)phenyl)ethyl-2,2,2-d3)-2-methoxynicotinamide]		6.70 to 7.70	6.70 to 7.70		
COc1ncc(-c2ccn3nc(N)nc3c2)cc1C(=O)NCc1ccccc1COC(C)C [Example 348, 5-(2-amino-[1,2,4]triazolo[1,5-a]pyridin-7-yl)-N-(2-(isopropoxymethyl)benzyl)-2-methoxynicotinamide]	> 7.70	6.70 to 7.70			
[2H]C([2H])(NC(=O)c1cc(-c2ccn3nc(N)nc3c2)cnc1OC)c1cc(C(F)(F)F)ccc1F [Example 349, 5-(2-amino-[1,2,4]triazolo[1,5-a]pyridin-7-yl)-N-((2-fluoro-5-(trifluoromethyl)phenyl)methyl-d2)-2-methoxynicotinamide]		6.70 to 7.70	6.70 to 7.70		
COc1nc(C)c(-c2ccn3nc(N)nc3c2)cc1C(=O)NCc1cc(F)cc(F)c1OC1CCCOC1 (centres unmarked) [Example 350, 5-(2-amino-[1,2,4]triazolo[1,5-a]pyridin-7-yl)-N-(3,5-difluoro-2-((tetrahydro-2H-pyran-3-yl)oxy)benzyl)-2-methoxy-6-methylnicotinamide]	> 7.70				> 7.70
COc1nc(C)c(-c2ccn3nc(N)nc3c2)cc1C(=O)NCc1cc(F)cc(F)c1O[C@H]1CCOC1 [Example 351, (S)-5-(2-amino-[1,2,4]triazolo[1,5-a]pyridin-7-yl)-N-(3,5-difluoro-2-((tetrahydrofuran-3-yl)oxy)benzyl)-2-methoxy-6-methylnicotinamide]	> 7.70				> 7.70
COc1nc(C)c(-c2ccn3nc(N)nc3c2)cc1C(=O)NCc1cc(F)cc(F)c1OC1CCOC(C)C1 (centres unmarked) [Example 352, 5-(2-amino-[1,2,4]triazolo[1,5-a]pyridin-7-yl)-N-(3,5-difluoro-2-((2-methyltetrahydro-2H-pyran-4-yl)oxy)benzyl)-2-methoxy-6-methylnicotinamide]	> 7.70	6.70 to 7.70			
COc1nc(C)c(-c2ccn3nc(N)nc3c2)cc1C(=O)NCc1cc(F)cc(F)c1OC1CC(C)OC(C)C1 (centres unmarked) [Example 353, 5-(2-amino-[1,2,4]triazolo[1,5-a]pyridin-7-yl)-N-(2-((2,6-dimethyltetrahydro-2H-pyran-4-yl)oxy)-3,5-difluorobenzyl)-2-methoxy-6-methylnicotinamide]	> 7.70	6.70 to 7.70			
COc1nc(C)c(-c2ccn3nc(N)nc3c2)cc1C(=O)NCc1cc(F)cc(F)c1O[C@@H]1CCOC1 [Example 354, (R)-5-(2-amino-[1,2,4]triazolo[1,5-a]pyridin-7-yl)-N-(3,5-difluoro-2-((tetrahydrofuran-3-yl)oxy)benzyl)-2-methoxy-6-methylnicotinamide]	> 7.70	6.70 to 7.70			
COc1nc(C)c(-c2ccn3nc(N)nc3c2)cc1C(=O)NCc1cccc(F)c1CN1CCOCC1 [Example 355, 5-(2-amino-[1,2,4]triazolo[1,5-a]pyridin-7-yl)-N-(3-fluoro-2-(morpholinomethyl)benzyl)-2-methoxy-6-methylnicotinamide]	> 7.70	6.70 to 7.70			
COc1nc(C)c(-c2ccn3nc(N)nc3c2)cc1C(=O)NCc1cccc(F)c1OC1C[C@@H](C)O[C@@H](C)C1 (stereo partly drawn) [Example 356, 5-(2-amino-[1,2,4]triazolo[1,5-a]pyridin-7-yl)-N-(2-(((2R,6S)-2,6-dimethyltetrahydro-2H-pyran-4-yl)oxy)-3-fluorobenzyl)-2-methoxy-6-methylnicotinamide]	> 7.70		6.70 to 7.70	< 6.70	
COc1nc(C)c(-c2ccn3nc(N)nc3c2)cc1C(=O)NCc1ccccc1CN1CCCCC1 [Example 358, 5-(2-amino-[1,2,4]triazolo[1,5-a]pyridin-7-yl)-2-methoxy-6-methyl-N-(2-(piperidin-1-ylmethyl)benzyl)nicotinamide]			6.70 to 7.70	< 6.70	
